Data on one molecule can be found in patent US9539256B2 (THE BOARD OF REGENTS OF THE UNIVERSITY OF TEXAS SYSTEM, priority 2012, dated 2017).

Entries after “also recorded” stand apart in the source; their conditions may differ.

In one assay the test system is AsPC-1 and PANC-1 cells. In words: Pancreatic cancer cell viability, alamar blue assay. Further details: dose or concentration left out as unconfirmed. In kind it is cell-based. To be noted: ESI-09 for 24 hours and 48 hours. As for the experimental part: FIG. 11. Effects of ESI-09 treatment on pancreatic cancer cell viability. AsPC-1 and PANC-1 cells were treated with vehicle control (open bars) or with […] ESI-09 (filled bars) for 24 hours and 48 hours. Cell viability was measured by a fluorometric alamar blue assay. Bars represent mean±s.d. (n=3).

Another assay deals with Plasma leptin. In words: Plasma leptin of wild-type mice after 3 weeks treatment. Type of assay: in vivo. To be noted: 50 mg/kg oral gavage for 3 weeks; relative to vehicle. As for the experimental part: (§1) FIGS. 17A-17B. Pharmacological inhibition of EPAC reduces plasma leptin and enhances leptin signaling in hypothalamus (A) Western blotting of pSTAT3 Y705, total STAT3, SOCS3, SHP2 and α-tubulin in organotypic brain slices at hypothalamus level treated with leptin with or without EPAC specific inhibitor. (B) Plasma leptin levels of 8-week-old wild-type mice treated 3 weeks with vehicle or ESI-09 (50 mg/kg).
(§2) To explore the feasibility of increasing leptin sensitivity by targeting Epac1 using small molecules, organotypic brain slice cultures were prepared from 11-day old wild-type C57BL/6 mice. After 7 days ex vivo culture, treatment of the brain tissue with the Epac specific antagonist ESI-09 led to an enhanced pSTAT3 Y705 level both at the basal state and in response to leptin stimulation. […] These pharmacological data are in agreement with results obtained using Epac1 KO mice and further confirm that inhibition of Epac1 enhances leptin signaling in the hypothalamus. To further investigate the therapeutic potential of this small molecule, wild-type mice were with ESI-09 (50 mg/kg) or vehicle (corn oil) by oral gavage for 3 weeks.

For assay [1], the system named is AsPC-1, BxPC-3, and PANC-1. Briefly: Wound healing assay. Type of assay: cell-based. As to conditions: 10.0 μM; AsPC-1, BxPC-3, PANC-1. As for the experimental part:
Cells were grown to 95-100% confluency before a scratch wound was made. The medium was changed to RPMI 10% FBS containing 10.0 μM ESI-09. The cells were then incubated at 37° C. in 5% CO2. The wound was imaged at 0 hours and 22 hours after changing the medium. Healing rate was determined by calculating the percentage of wound closure normalized to a 1.0 mm wound according to the following equation: % wound closure=(distance between the edges of the wound before treatment with ES-09−distance between the edges of the wound 22 hours post treatment with ES-09)/1.0×100.

The next assay has as its system MIA PaCa-2. Briefly: Orthotopic MIA PaCa-2 pancreatic cancer metastasis model. Type of assay: in vivo. As to conditions: athymic nude mice; 50 mg/kg per day, oral gavage; weekly bioluminescence imaging; 50 mg/kg/day. As for the experimental part:
FIG. 14. ESI-09 inhibits PDA metastasis in vivo. MIA PaCa-2 stably expressing luciferase was orthotopically implanted into the pancreas of athymic nude mice. The mice were randomly divided into two groups and treated with vehicle or ESI-09 (50 mg/kg, oral gavage), respectively. The growth and metastasis of the tumors were monitored by weekly bioluminescence imaging using the IVIS bioluminescence imaging system.
It has been recently reported that EPAC1 is over-expressed in pancreatic adenocarcinoma (Lorenz et al. (2008) Pancreas 37: 102-103). However, the functional role of EPAC1 elevation in this neoplasm is not clear. The inventors sought to employ ESI-09 to determine the role of EPAC1 signaling in pancreatic cancer. […] In order to determine if the observed impact on cell migration is EPAC1 specific, the effect of suppressing EPAC1 expression on AsPC-1 and PANC-1 migration using RNAi was examined. […] To further determine how ESI-09 inhibits PDA cell migration and invasion, a cell adhesion assay was performed using a collagen I matrix. […] To determine the in vivo anti-metastatic effect of ESI-09, MIA PaCa-2 stably expressing luciferase were orthotopically implanted into the pancreas of athymic nude mice. […] The growth and metastasis of the tumors were monitored by weekly bioluminescence imaging using the IVIS bioluminescence imaging system.

Assay [2] has as its target T1, EPAC2 (Homo sapiens, UniProt Q8WZA2).
T1 construct: HEK293 cells that ectopically express full-length EPAC2 proteins; expressed in transfected cells; host or cells: HEK293
In words: Rap1 activation assay in HEK293/EPAC2 cells. In kind it is cell-based. To be noted: HEK293/EPAC2 cells; pre-treatment with 10 μM compound. As for the experimental part:
FIGS. 9A-9B. Effects of EPAC2-specific antagonists on 007-AM-mediated cellular activation of Rap1. […] GTP-bound Rap1 (Rap1GTP) obtained by a Ral-GDSRBD-GST pull-down assay and total cellular Rap1 were detected by immunoblotting with Rap1-specific antibody. […] At test was used to determine statistical significance (*P<0.05).
Cellular activation of Rap1 was determined by pull-down of lysates derived from human vascular smooth muscle cell and HEK293 cells stably expressing EPAC1 or EPAC2 employing Ral-GDS-RBD-GST affinity beads as described earlier (Mei and Cheng (2005) Molecular Biosystems 1: 325-331).

Assay [3] has as its target T1, EPAC2. Briefly: Phosphorylation of Akt in HEK293/EPAC2 cells. Type of assay: cell-based. As to conditions: 10 μM for 5 min before 007-AM. As to the method:
FIG. 10. Effect of ESI-09 on EPAC-mediated PKB phosphorylation in HEK293/EPAC1, HEK293/EPAC2, and human vascular smooth muscle (hVSMC) cells. Serum-starved HEK293/EPAC1, HEK293/EPAC2, and hVSMC cells with or without pretreatment of […] ESI-09 were stimulated with 10 μM 007-AM. Cell lysates were subjected to Western blot analysis as described under “Experimental Procedures” using anti-phospho-Ser473-specific (PKB-P473) and anti-phospho-Thr308-specific (PKB-P308) PKB antibodies.
Cellular proteins from cell lysates treated with various reagents were separated by SDS-PAGE and transferred to polyvinylidene difluoride membrane. The levels of Akt activation were probed by immuno-blotting analyses using anti-phosphate T308 PKB antibodies (1:1000) and anti-phosphate S473 PKB antibodies (1:1000). At least three independent experiments were performed for each Western blot.

A further assay relates to R. australia. Briefly: R. australia infection of HUVEC cells, immunofluorescence. In kind it is cell-based. As to conditions: 24 hours post infection. As for the experimental part: FIG. 22. ESI-09 treatment suppresses cellular entry of R. australia. HUVEC cells treated with vehicle or ESI-09 were infected with R. australia. The levels of R. australia (Red) and EPAC1 (Green) were monitored with immunofluorescence staining 24 hours post infection.
To investigate the mechanism of EPAC1 inhibition-mediated protection of R. australia infection, HUVEC cells treated with vehicle or ESI-09 were infected with R. australia.

A further assay has as its system pSTAT3 Y705. Briefly: Leptin signaling in organotypic brain slice cultures, Western blotting. Type of assay: cell-based, mice. As to conditions: basal state and in response to leptin stimulation. As to the method:
as §1, §2

T1 sequence (Q8WZA2 whole entry, species assumed): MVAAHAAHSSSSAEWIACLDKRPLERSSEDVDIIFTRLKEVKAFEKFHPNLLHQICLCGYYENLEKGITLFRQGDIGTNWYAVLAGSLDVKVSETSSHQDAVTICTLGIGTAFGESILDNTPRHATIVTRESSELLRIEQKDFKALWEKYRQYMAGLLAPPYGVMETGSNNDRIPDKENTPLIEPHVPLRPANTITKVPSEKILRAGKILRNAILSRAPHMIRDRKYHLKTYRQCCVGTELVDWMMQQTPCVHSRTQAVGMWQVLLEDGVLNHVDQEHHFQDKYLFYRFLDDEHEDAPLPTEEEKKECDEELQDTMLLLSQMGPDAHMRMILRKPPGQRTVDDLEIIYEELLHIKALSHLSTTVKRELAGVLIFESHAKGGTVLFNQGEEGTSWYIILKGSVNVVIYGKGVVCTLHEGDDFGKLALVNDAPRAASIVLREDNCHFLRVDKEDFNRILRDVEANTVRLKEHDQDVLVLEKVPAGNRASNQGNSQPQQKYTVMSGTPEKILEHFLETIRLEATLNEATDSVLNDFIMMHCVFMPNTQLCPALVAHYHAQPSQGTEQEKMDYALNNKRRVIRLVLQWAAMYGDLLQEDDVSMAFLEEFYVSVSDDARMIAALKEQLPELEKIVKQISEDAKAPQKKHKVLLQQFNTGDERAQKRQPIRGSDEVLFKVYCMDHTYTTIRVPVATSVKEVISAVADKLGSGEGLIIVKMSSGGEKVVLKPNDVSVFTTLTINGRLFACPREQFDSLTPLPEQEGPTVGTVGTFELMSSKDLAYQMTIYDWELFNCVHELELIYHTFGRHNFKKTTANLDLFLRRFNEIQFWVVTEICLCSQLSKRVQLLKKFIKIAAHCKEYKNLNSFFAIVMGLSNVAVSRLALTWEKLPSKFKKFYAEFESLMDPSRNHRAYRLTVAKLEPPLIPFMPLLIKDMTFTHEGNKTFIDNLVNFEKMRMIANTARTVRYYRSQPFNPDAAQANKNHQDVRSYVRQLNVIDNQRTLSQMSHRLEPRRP

For `CC(C)(C)c1cc(C(=O)C(C#N)=NNc2cccc(Cl)c2)no1` [ESI-09, 3-(5-Tert-Butyl-Isoxazol-3-Yl)-2-[(3-Chlorophenyl)-Hydrazono]-3-Oxo-Propionitrile], the “cell proliferation and viability” value with AsPC-1 and PANC-1 cells was “did not significantly affect”. In addition, the Plasma leptin entry with Plasma leptin is on record as “significantly reduced”. For the same molecule, in assay [1], the “cell migration, wound healing” value is “significant decrease; also recorded: significantly (P<0.05) decreased”. For the same molecule, in the assay with MIA PaCa-2, the PDA metastasis entry is recorded as “reduced; also recorded: inhibits”. Moreover, at EPAC2 [2], the “007-AM induced Rap1 activation” value was “significant reduction”. Further, the “EPAC2-mediated Akt phosphorylation (T308 and S473)” value at EPAC2 [3] was “completely blocked”. Also, the “number of intracellular R. australia (cellular entry)” value in the assay on R. australia was “dramatically reduced; also recorded: suppresses”. In addition, in the assay on pSTAT3 Y705, the “pSTAT3 Y705 level” value was “enhanced”.
